According to article PMC7307922 (Journal of Medicinal Chemistry, 2020):
≈ marks a conversion by molar mass, not a printed value.

Experiments:
[1] = target: T1, human FFA2 (Homo sapiens, UniProt O15552); assay: FFA2 counterscreen, cAMP assay; type: cell-based; conditions: 10 μM
T1 construct: expressed in transfected cells; host or cells: Flp-In T-REx 293, doxycycline-induced
T1 sequence (O15552 1-330): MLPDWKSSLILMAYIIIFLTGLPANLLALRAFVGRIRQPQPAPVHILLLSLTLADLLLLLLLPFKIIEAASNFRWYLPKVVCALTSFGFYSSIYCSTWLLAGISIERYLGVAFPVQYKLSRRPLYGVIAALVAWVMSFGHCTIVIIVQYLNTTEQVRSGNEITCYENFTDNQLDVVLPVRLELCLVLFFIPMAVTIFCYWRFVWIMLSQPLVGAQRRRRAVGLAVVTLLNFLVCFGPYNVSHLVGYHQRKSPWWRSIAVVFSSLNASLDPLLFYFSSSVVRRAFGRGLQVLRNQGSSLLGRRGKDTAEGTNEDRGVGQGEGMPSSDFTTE
Method: Counter screening against FFA1, FFA2 , FF A4 and GPR84 […]
Counter screening for FFA2 was carried out using a cAMP assay. Flp-In T-Re x 293 cells generated to stably express human FFA2 tagged at is C-terminal with eYFP were first treated with doxycycline (100 ng/mL) overnight to induce receptor expressi on. Cells were then detached and used directly in an HT R-FRET cAMP assay (CisBio) according to the manufacturer’s protocol and measured using a Pherastar FS plate reader (BMG Labtech, Aylesbury, UK). For these experiments, 2000 cells were used per well in a low volume 384-well plate and compounds were tested against their ability to inhibit the cAMP response to 1 µM forskolin for 30 min. […]

[2] = target: T2, human FFA1 (Homo sapiens, UniProt O14842); assay: FFA1 counterscreen, arrestin BRET assay; type: cell-based; conditions: 10 μM
T2 construct: expressed in transfected cells; host or cells: HEK293T, transient co-transfection
Method: Counter screening against FFA1, FFA2 , FF A4 and GPR84
Counter screening against FFA1 and FFA4 was carried out using a modified version of a previously described bioluminescence resonance energy transfer (BRET) designed to assess recruitment of b-ar r estin-2 to each receptor.2 Briefly, HEK293T cells were co-transfected with plasmids en coding either human FFA1 or human FFA4 tagged at their C -termini with eYFP and with a plasmid encoding b-ar r estin-2 tagged at its N-terminal with Nanoluciferase. 24 h post transfection cells were seeded into black with clear bottom 96-well plates that had been coated with poly-D-lysine. Cells were then cultured a further 24 h prior to experiments. Cells were then washed twice with Hank’s Balanced salt solution supplemented with 10 mM HEPES (HBSSH) then incubated at 37 °C in HBSSH for 30 min prior to running the assay. The Nluc substrate, coelenterazine h was then added to a f inal concentration of 5 µM and cells were incubated at 37 °C for 10 min prior to adding test agonists. Following a further 5 min incubation, luminescent emission at 475 nm and 535 nm was measured using a Pherastar FS reader (BMG Labtech, Aylesbury, UK) pla te reader set for bottom plate optics. The BRET ratio was then calculated as 535/475 emissions and all BRET ratio values were normalized against the maxima l BRET ratio obtained using reference agonists for the respective receptors (TUG -891 for FFA4, TUG-770 for FFA1). For antagonism studies, the same protocol was used, however the antagonist was added 15 min prior to the addition of an EC 80 concentration of the reference agonist for each receptor. […]

[3] = target: T3, hFFA3 (Homo sapiens, UniProt O14843); assay: cell-based; conditions: for Emax: HEK293, read-out: cAMP Emax; for cAMP pEC50 / EC50: hFFA3; for cAMP pEC50: compound alone, mean of ≥3 independent experiments ± standard error; for EC50: read-out: EC50 (cAMP assay)
T3 sequence (O14843 1-346): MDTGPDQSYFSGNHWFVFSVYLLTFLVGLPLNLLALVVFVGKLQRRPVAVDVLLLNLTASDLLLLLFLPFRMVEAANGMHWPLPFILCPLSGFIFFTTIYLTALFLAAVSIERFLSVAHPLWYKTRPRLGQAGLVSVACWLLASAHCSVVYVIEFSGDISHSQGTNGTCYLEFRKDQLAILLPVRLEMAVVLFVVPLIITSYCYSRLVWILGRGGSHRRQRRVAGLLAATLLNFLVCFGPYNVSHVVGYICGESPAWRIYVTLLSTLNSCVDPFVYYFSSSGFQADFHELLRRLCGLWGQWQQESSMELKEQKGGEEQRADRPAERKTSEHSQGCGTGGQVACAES
Procedure, shortened: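 HEK293 Flp-In T-REx cells stably carrying FFA3-eYFP, expression induced overnight with doxycycline, 3000 cells/well; compounds co-incubated 1 h to inhibit 0.3 μM forskolin-induced cAMP, read with HTRF cAMP kit.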

[4] = in vivo; conditions: male, BALB/c, mouse
Method: The study was performed by Bienta (www.bienta.net). Study design, animal selection, handling, and treatment were all in accordance with the Enamine PK study protocols and Institutional Animal Care and Use Guidelines. Animal treatment and plasma samples preparation were conducted by the Animal Laboratory personnel at Enamine/Bienta. […] The animals were randomly assigned to the treatment groups before the pharmacokinetic study; all animals were fasted for 4 h before dosing. […] Each of the time point treatment group included four animals. There was also a control group of two animals. […] Dosing volumes of compounds or vehicle was 5 mL/kg. Mice were injected iv with 2,2,2-tribromoethanol at the dose of 150 mg/kg prior to drawing the blood. Blood collection was performed from the orbital sinus in microtainers containing K2EDTA. Animals were sacrificed by cervical dislocation after the blood sample collection. All samples were immediately processed, flash-frozen, and stored at −70 °C until subsequent analysis. […] After mixing by pipetting and centrifuging for 4 min at 6000 rpm, 0.5–1 μL of each supernatant was analyzed by HPLC-MS/MS on an API 3000 PE instrument.

[5] = Kinetic aqueous solubility in PBS pH 7.4; type: physicochemical; conditions: for solubility: phosphate buffered saline, pH 7.4, read-out: Aq. solub.
Method: Solubility and log D7.4 measurements were performed in accordance to the previously published procedures.[35]

T2 sequence (O14842 whole entry): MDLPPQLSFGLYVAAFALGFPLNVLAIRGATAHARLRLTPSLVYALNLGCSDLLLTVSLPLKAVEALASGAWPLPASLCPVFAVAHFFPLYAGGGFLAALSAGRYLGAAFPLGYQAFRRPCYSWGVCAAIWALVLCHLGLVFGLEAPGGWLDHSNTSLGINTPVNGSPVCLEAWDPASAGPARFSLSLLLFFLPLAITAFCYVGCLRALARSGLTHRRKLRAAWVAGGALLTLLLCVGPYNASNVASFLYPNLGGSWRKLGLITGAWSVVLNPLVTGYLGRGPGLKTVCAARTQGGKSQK

Compound: CC1=C(C(=O)Nc2cc(Cl)ccc2Cl)C(C2CCCC2)C2=C(CCCC2=O)N1 (stereo not shown) [Compound 63, 4-Cyclopentyl-N-(2,5-dichlorophenyl)-2-methyl-5-oxo-1,4,5,6,7,8-hexahydroquinoline-3-carboxamide]
- activity at FFA2 [1]: No significant activity
- activity at FFA1 [2]: No significant activity
- Emax [3]: 99%
- allosteric effect on propionate response ([3]; cAMP assay together with propionate (56: 30 μM compound; 62, 63: 1 μM propionate)): did not reveal significant PAM effects
- cAMP pEC50 [3]: 6.79 ± 0.05
- EC50 [3]: 162 nM
- Vd at 24 h ([4]; iv, 5 mg/kg): 1.11 L/kg
- clearance at 24 h ([4]; iv, 5 mg/kg): 20.3 mL/min/kg
- half-life at 24 h ([4]; iv, 5 mg/kg): 37.8 min
- AUC(0-inf) at 24 h ([4]; po, 10 mg/kg): 5420 ng·h/mL
- Cmax at 24 h ([4]; po, 10 mg/kg): 3800 ng/mL
- Tmax at 24 h ([4]; po, 10 mg/kg): 15 min
- bioavailability at 24 h ([4]; po, 10 mg/kg): 66%
- half-life at 24 h ([4]; po, 10 mg/kg): 51.8 min
- solubility [5]: 9 µM (≈ 3.77 µg/mL)

Compound: CCCC1C(C(=O)Nc2cc(Cl)ccc2Cl)=C(C)NC2=C1C(=O)CCC2 (stereo not shown) [Compound 57, N-(2,5-Dichlorophenyl)-2-methyl-5-oxo-4-propyl-1,4,5,6,7,8-hexahydroquinoline-3-carboxamide]
- activity at FFA2 [1]: No significant activity
- activity at FFA1 [2]: No significant activity
- Emax [3]: 113%
- cAMP pEC50 [3]: 6.84 ± 0.02
- EC50 [3]: 145 nM
- Vd at 24 h ([4]; iv, 5 mg/kg): 1.15 L/kg
- clearance at 24 h ([4]; iv, 5 mg/kg): 70.3 mL/min/kg
- half-life at 24 h ([4]; iv, 5 mg/kg): 11.4 min
- AUC(0-inf) at 24 h ([4]; po, 10 mg/kg): 563 ng·h/mL
- Cmax at 24 h ([4]; po, 10 mg/kg): 561 ng/mL
- Tmax at 24 h ([4]; po, 10 mg/kg): 30 min
- bioavailability at 24 h ([4]; po, 10 mg/kg): 36%
- half-life at 24 h ([4]; po, 10 mg/kg): 63.5 min
- increase of solubility relative to 16 ([5]; kinetic solubility): 6 fold
- solubility [5]: 33 µM (≈ 13 µg/mL)

Compound: CC1=C(C(=O)Nc2ccccc2C)C(c2ccco2)C2=C(CCCC2=O)N1 (stereo not shown) [Compound 1, 4-(Furan-2-yl)-2-methyl-5-oxo-N-(o-tolyl)-1,4,5,6,7,8-hexahydroquinoline-3-carboxamide, reference compound]
- activity at FFA2 [1]: No significant activity
- activity at FFA1 [2]: No significant activity
- Emax [3]: 105%
- PAM pEC50 ([3]; cAMP assay in the presence of 1 μM propionate): 6.27 ± 0.15
- cAMP pEC50 [3]: 6.28 ± 0.06
- Vd at 24 h ([4]; iv, 5 mg/kg): 0.759 L/kg
- clearance at 24 h ([4]; iv, 5 mg/kg): 8.45 mL/min/kg
- half-life at 24 h ([4]; iv, 5 mg/kg): 62.2 min
- AUC(0-inf) at 24 h ([4]; po, 10 mg/kg): 14400 ng·h/mL
- Cmax at 24 h ([4]; po, 10 mg/kg): 7470 ng/mL
- Tmax at 24 h ([4]; po, 10 mg/kg): 15 min
- bioavailability at 24 h ([4]; po, 10 mg/kg): 73%
- half-life at 24 h ([4]; po, 10 mg/kg): 89.7 min
- solubility [5]: 190 µM (≈ 68.9 µg/mL)

Compound: CC1=C(C(=O)Nc2cc(Cl)ccc2Cl)C(c2ccco2)C2=C(CCCC2=O)N1 (stereo not shown) [Compound 16, reference compound]
- activity at FFA2 [1]: No significant activity
- activity at FFA1 [2]: No significant activity
- Emax [3]: 106%
- cAMP pEC50 [3]: 6.89 ± 0.02
- Vd at 24 h ([4]; iv, 5 mg/kg): 0.629 L/kg
- clearance at 24 h ([4]; iv, 5 mg/kg): 19.6 mL/min/kg
- half-life ([4]; iv, 5 mg/kg): 20 min
- half-life at 24 h ([4]; iv, 5 mg/kg): 22.3 min
- AUC(0-inf) at 24 h ([4]; po, 10 mg/kg): 7050 ng·h/mL
- Cmax at 24 h ([4]; po, 10 mg/kg): 5740 ng/mL
- Tmax at 24 h ([4]; po, 10 mg/kg): 30 min
- bioavailability at 24 h ([4]; po, 10 mg/kg): 88%
- half-life at 24 h ([4]; po, 10 mg/kg): 60.8 min
- solubility [5]: 5 µM (≈ 2.09 µg/mL)
